Reference: ChEMBL document CHEMBL2385014, “Melanogenesis inhibitory daphnane diterpenoids from the flower buds of Daphne genkwa” (Bioorg Med Chem Lett, 2013)

Legend:
[1] = system: B16; test: Cytotoxicity against alpha-MSH stimulated mouse B16 cells after 72 hrs by MTT assay; format: cell-based; conditions: B16, 72 h
[2] = system: B16; test: Inhibition of melanin production in alpha-MSH stimulated mouse B16 cells after 72 hrs by spectrophotometry; format: functional, cell-based; conditions: for IC50: B16, 72 h

Structure (SMILES)	IC50 [1]	inhibition [2]	IC50 [2]
C=C(C)[C@@]12O[C@@]3(/C=C/C=C/CCCCC)O[C@@H]1[C@@H]1[C@@H]4O[C@]4(CO)[C@@H](O)[C@]4(O)C(=O)C(C)=C[C@H]4[C@@]1(O3)[C@H](C)[C@H]2OC(=O)c1ccccc1 [GNIDILATIDIN]	> 30 µM	Dose-dependent effect	0.16 µM
C=C(C)[C@@]12OC3(C)O[C@@H]1[C@@H]1C=C(CO)C[C@]4(O)C(=O)C(C)=C[C@H]4[C@@]1(O3)[C@H](C)[C@H]2OC(C)=O	> 30 µM	Dose-dependent effect	4.9 µM
C=C(C)[C@@]12O[C@@]3(/C=C/C=C/CCCCC)O[C@@H]1[C@@H]1[C@@H]4O[C@]4(CO)[C@@H](O)[C@]4(O)C(=O)C(C)=C[C@H]4[C@@]1(O3)[C@H](C)[C@H]2OC(C)=O [YUANHUADINE]	22 µM	Dose-dependent effect	0.06 µM
C=C(C)[C@]12C[C@@H](C)[C@@]34OC(c5ccccc5)(O[C@@H]1[C@@H]3[C@H](O)[C@](O)(CO)[C@@H](O)[C@@]1(O)[C@H]4C[C@H](C)[C@@H]1O)O2	> 30 µM	Dose-dependent effect	9 µM
C=C(C)[C@@]12OC3(/C=C/C=C/CCCCC)O[C@@H]1[C@@H]1[C@@H]4O[C@]4(CO)[C@@H](O)[C@]4(O)C(=O)C(C)=C[C@H]4[C@@]1(O3)[C@H](C)[C@H]2OC(=O)CC	28 µM	Dose-dependent effect	0.19 µM
C=C(C)[C@]12C[C@@H](C)[C@@]34OC(c5ccccc5)(O[C@@H]1[C@@H]3[C@H](O)[C@](O)(COC(=O)/C=C/C=C/CCCCC)[C@@H](O)[C@@]1(O)[C@H]4C[C@H](C)[C@@H]1O)O2	> 30 µM	Dose-dependent effect	0.57 µM
C=C(C)[C@@]12OC3(C)O[C@@H]1[C@@H]1C=C(CO)C[C@]4(O)C(=O)C(C)=C[C@H]4[C@@]1(O3)[C@H](C)[C@H]2OC(=O)c1ccccc1	6.6 µM		2.3 µM
C=C(C)[C@@]12OCO[C@@H]1[C@@H]1[C@@H]3O[C@]3(CO)[C@@H](O)[C@]3(O)C(=O)C(C)=C[C@H]3[C@@]1(Oc1ccccc1)[C@H](C)[C@H]2OC(=O)c1ccccc1 [GENKWADAPHNIN]	> 30 µM	Dose-dependent effect	0.18 µM
OC[C@H]1O[C@@H](Oc2ccc(O)cc2)[C@H](O)[C@@H](O)[C@@H]1O [ARBUTIN]			140 µM
C=C(C)[C@]12C[C@@H](C)[C@@]34OC(c5ccccc5)(O[C@@H]1[C@@H]3[C@H](O)[C@](O)(COC(=O)c1ccccc1)[C@@H](O)[C@@]1(O)[C@H]4C[C@H](C)[C@@H]1O)O2	> 30 µM	Dose-dependent effect	2 µM
